Assay results as given in patent US20240050428A1 (Cullgen (Shanghai), Inc., priority 2020, published 2024).
Where two headings read alike, the source gives them in different places.

Assays:
[1] = system: MOLM-13 cells; test: Cell viability assay (CellTiter-Glo) in MOLM-13 cells, alone or with gilteritinib; type: cell-based; conditions: Homo sapiens, MOLM-13, 72 h, MOLM-13 cells, CellTiter-Glo
[2] = system: MV4;11 cells; test: Cell viability assay (CellTiter-Glo) in MV4;11 cells, alone or with gilteritinib; type: cell-based; conditions: Homo sapiens, MV4-11, 72 h, MV4;11 cells, CellTiter-Glo, read-out: MV4
[3] = compound alone (without gilteritinib), three days, read-out: MOLM-13 IC50
[4] = compound with gilteritinib 20 nM, three days, read-out: MOLM-13 IC50 gilteritinib
[5] = compound alone (without gilteritinib), three days, 11 IC50
[6] = compound with gilteritinib 10 nM, three days, 11 IC50 gilteritinib
[7] = with gilteritinib 20 nM, three days, read-out: MOLM-13 IC50 gilteritinib
[8] = with gilteritinib 10 nM, three days, 11 IC50 gilteritinib

IC50 [1, 3] [nM]	IC50 [1, 4] [nM]	IC50 [2, 5] [nM]	IC50 [2, 6] [nM]	IC50 ([1]; with 20 nM gilteritinib, 3 days, read-out: MOLM-13 IC50 gilteritinib) [nM]	IC50 ([1]; without gilteritinib, 3 days, read-out: MOLM-13 IC50) [nM]	IC50 ([2]; with 10 nM gilteritinib, 3 days, 11 IC50 gilteritinib) [nM]	IC50 ([2]; without gilteritinib, 3 days, 11 IC50) [nM]	IC50 [1, 7] [nM]	IC50 [2, 8] [nM]	Compound
< 10	< 10	< 10	< 10							O=C1CCC(N2Cc3cc(CNC(=O)c4cccc(N5CCC(n6cc(-c7cnc8ccccc8n7)cn6)CC5)c4)ccc3C2=O)C(=O)N1 (centres unmarked) [GS-476, N-((2-(2,6-dioxopiperidin-3-yl)-1-oxoisoindolin-5-yl)methyl)-3-(4-(4-(quinoxalin-2-yl)-1H-pyrazol-1-yl)piperidin-1-yl)benzamide]
< 10	< 10	< 10	< 10							O=C1CCC(N2C(=O)c3ccc(NCCCCCC(=O)N4CCC(n5cc(-c6cnc7ccc(N8CCNCC8)cc7n6)cn5)CC4)cc3C2=O)C(=O)N1 (centres unmarked) [GS-526, 2-(2,6-Dioxopiperidin-3-yl)-5-((6-oxo-6-(4-(4-(7-(piperazin-1-yl)quinoxalin-2-yl)-1H-pyrazol-1-yl)piperidin-1-yl)hexyl)amino)isoindoline-1,3-dione]
				103	> 10000	191	> 10000			O=C1CCC(N2C(=O)c3ccc(NCCCCCC(=O)N4CCC(n5cccn5)CC4)cc3C2=O)C(=O)N1 (centres unmarked) [GS-003, 5-((6-(4-(1H-Pyrazol-1-yl)piperidin-1-yl)-6-oxohexyl)amino)-2-(2,6-dioxopiperidin-3-yl)isoindoline-1,3-dione]
10 to 100		10 to 100						< 10	< 10	O=C1CCC(N2Cc3cc(CNC(=O)C45CC(C(=O)N6CCC(n7cc(-c8cnc9ccccc9n8)cn7)CC6)(C4)C5)ccc3C2=O)C(=O)N1 (centres unmarked) [GS-120, N-((2-(2,6-dioxopiperidin-3-yl)-1-oxoisoindolin-5-yl)methyl)-3-(4-(4-(quinoxalin-2-yl)-1H-pyrazol-1-yl)piperidine-1-carbonyl)bicyclo[1.1.1]pentane-1-carboxamide]
100 to 1000		10 to 100						10 to 100	< 10	O=C1CCC(N2C(=O)c3ccc(NCCCCCC(=O)N4CCC(n5cc(-c6ncccn6)cn5)CC4)cc3C2=O)C(=O)N1 (centres unmarked) [GS-051, 2-(2,6-Dioxopiperidin-3-yl)-5-((6-oxo-6-(4-(4-(pyrimidin-2-yl)-1H-pyrazol-1-yl)piperidin-1-yl)hexyl)amino)isoindoline-1,3-dione]
10 to 100	< 10	10 to 100	< 10							Cc1cccc(-c2cn([C@H]3C[C@H](CNc4ccc5c(c4)C(=O)N(C4CCC(=O)NC4=O)C5=O)C3)nc2C2CC2)n1 (stereo partly drawn) [GS-589, 5-(((trans-3-(3-Cyclopropyl-4-(6-methylpyridin-2-yl)-1H-pyrazol-1-yl)cyclobutyl)methyl)amino)-2-(2,6-dioxopiperidin-3-yl)isoindoline-1,3-dione]
> 1000		100 to 1000						10 to 100	10 to 100	O=C1CCC(N2Cc3ccc(CCCCC(=O)N4CCC(n5cc(-c6ccc7ccccc7n6)cn5)CC4)cc3C2=O)C(=O)N1 (centres unmarked) [GS-160, 3-(1-Oxo-6-(5-oxo-5-(4-(4-(quinolin-2-yl)-1H-pyrazol-1-yl)piperidin-1-yl)pentyl)isoindolin-2-yl)piperidine-2,6-dione]
> 1000		100 to 1000						10 to 100	10 to 100	O=C1CCC(N2C(=O)c3ccc(NC[C@H]4C[C@H](n5cc(-c6cc7cc[nH]c7cn6)c(C6CC6)n5)C4)cc3C2=O)C(=O)N1 (stereo partly drawn) [GS-279, 5-(((trans-3-(3-Cyclopropyl-4-(1H-pyrrolo[2,3-c]pyridin-5-yl)-1H-pyrazol-1-yl)cyclobutyl)methyl)amino)-2-(2,6-dioxopiperidin-3-yl)isoindoline-1,3-dione]
100 to 1000		10 to 100						10 to 100	< 10	O=C1CCC(N2C(=O)c3ccc(NC[C@H]4C[C@H](n5cc(-c6cc7nccnc7cn6)c(C6CC6)n5)C4)cc3C2=O)C(=O)N1 (stereo partly drawn) [GS-285, 5-(((trans-3-(3-Cyclopropyl-4-(pyrido[3,4-b]pyrazin-7-yl)-1H-pyrazol-1-yl)cyclobutyl)methyl)amino)-2-(2,6-dioxopiperidin-3-yl)isoindoline-1,3-dione]
10 to 100		10 to 100						< 10	< 10	O=C1CCC(N2Cc3c(Nc4cccc(Nc5cccc(N6CCC(n7cc(-c8cnc9ccccc9n8)cn7)CC6)c5)n4)cccc3C2=O)C(=O)N1 (centres unmarked) [GS-090, 3-(1-Oxo-4-((6-((3-(4-(4-(quinoxalin-2-yl)-1H-pyrazol-1-yl)piperidin-1-yl)phenyl)amino)pyridin-2-yl)amino)isoindolin-2-yl)piperidine-2,6-dione]
> 1000		> 1000						10 to 100	10 to 100	Cc1cccc(-c2cn([C@H]3C[C@H](CNc4ccc5c(c4)C(=O)N(C4CCC(=O)NC4=O)C5=O)C3)nc2C2CCOCC2)n1 (stereo partly drawn) [GS-071, 2-(2,6-Dioxopiperidin-3-yl)-5-(((trans-3-(4-(6-methylpyridin-2-yl)-3-(tetrahydro-2H-pyran-4-yl)-1H-pyrazol-1-yl)cyclobutyl)methyl)amino)isoindoline-1,3-dione]
100 to 1000		100 to 1000						10 to 100	10 to 100	O=C1CCC(N2C(=O)c3ccc(NCCC[C@H]4C[C@H](n5cc(-c6cnc7c(C8CNC8)cccc7n6)cn5)C4)cc3C2=O)C(=O)N1 (stereo partly drawn) [GS-250, 5-((3-(trans-3-(4-(5-(Azetidin-3-yl)quinoxalin-2-yl)-1H-pyrazol-1-yl)cyclobutyl)propyl)amino)-2-(2,6-dioxopiperidin-3-yl)isoindoline-1,3-dione]
> 1000		> 1000						> 1000	> 1000	O=C1CCC(N2C(=O)c3ccc(NC[C@H]4C[C@H](n5cc(-c6cccc(=O)[nH]6)c(C6CC6)n5)C4)cc3C2=O)C(=O)N1 (stereo partly drawn) [GS-270, 5-(((trans-3-(3-Cyclopropyl-4-(6-oxo-1,6-dihydropyridin-2-yl)-1H-pyrazol-1-yl)cyclobutyl)methyl)amino)-2-(2,6-dioxopiperidin-3-yl)isoindoline-1,3-dione]
> 1000		> 1000						> 1000	> 1000	O=C1CCC(N2Cc3c(Nc4ccnc(NCCCN5CCC(n6cc(-c7cnc8ccccc8n7)cn6)CC5)n4)cccc3C2=O)C(=O)N1 (centres unmarked) [GS-088, 3-(1-Oxo-4-((2-((3-(4-(4-(quinoxalin-2-yl)-1H-pyrazol-1-yl)piperidin-1-yl)propyl)amino)pyrimidin-4-yl)amino)isoindolin-2-yl)piperidine-2,6-dione]
> 1000		> 1000						> 1000	100 to 1000	CN1CCN(c2cccc3ncc(-c4cnn(CCCCCCNc5ccc6c(c5)C(=O)N(C5CCC(=O)NC5=O)C6=O)c4)nc23)CC1 (centres unmarked) [GS-383, 2-(2,6-Dioxopiperidin-3-yl)-5-((6-(4-(8-(4-methylpiperazin-1-yl)quinoxalin-2-yl)-1H-pyrazol-1-yl)hexyl)amino)isoindoline-1,3-dione]
> 1000	> 1000	> 1000	> 1000							CN1CC(c2cccc(-c3cn([C@H]4C[C@H](CNc5ccc6c(c5)C(=O)N(C5CCC(=O)NC5=O)C6=O)C4)nc3C3CC3)n2)C1 (stereo partly drawn) [GS-619, 5-(((trans-3-(3-Cyclopropyl-4-(6-(1-methylazetidin-3-yl)pyridin-2-yl)-1H-pyrazol-1-yl)cyclobutyl)methyl)amino)-2-(2,6-dioxopiperidin-3-yl)isoindoline-1,3-dione]
> 1000		> 1000						100 to 1000	100 to 1000	O=C1CCC(N2C(=O)c3ccc(NCCCCCNc4ncc(-c5cnc6ccccc6n5)s4)cc3C2=O)C(=O)N1 (centres unmarked) [GS-390, 2-(2,6-Dioxopiperidin-3-yl)-5-((5-((5-(quinoxalin-2-yl)thiazol-2-yl)amino)pentyl)amino)isoindoline-1,3-dione]
> 1000		100 to 1000						100 to 1000	100 to 1000	O=C1CCC(N2C(=O)c3ccc(NCCCCCn4cc(-c5cnc6ccccc6n5)cn4)cc3C2=O)C(=O)N1 (centres unmarked) [GS-356, 2-(2,6-Dioxopiperidin-3-yl)-5-((5-(4-(quinoxalin-2-yl)-1H-pyrazol-1-yl)pentyl)amino)isoindoline-1,3-dione]
100 to 1000		10 to 100						< 10	10 to 100	N#Cc1ccc2ncc(-c3cnn([C@H]4C[C@H](CCCNc5ccc6c(c5)C(=O)N(C5CCC(=O)NC5=O)C6=O)C4)c3)nc2c1 (stereo partly drawn) [GS-198, 3-(1-(trans-3-(3-((2-(2,6-Dioxopiperidin-3-yl)-1,3-dioxoisoindolin-5-yl)amino)propyl)cyclobutyl)-1H-pyrazol-4-yl)quinoxaline-6-carbonitrile]
> 1000	< 10	10 to 100	10 to 100							Cc1c(-c2cnc3ccccc3n2)cnn1CCCCCCNc1ccc2c(c1)C(=O)N(C1CCC(=O)NC1=O)C2=O (centres unmarked) [GS-535, 2-(2,6-dioxopiperidin-3-yl)-5-((6-(5-methyl-4-(quinoxalin-2-yl)-1H-pyrazol-1-yl)hexyl)amino)isoindoline-1,3-dione]
